Reference: ChEMBL document CHEMBL4346726 (Bioorg Med Chem Lett, 2019)

Key:
Hepacivirus hominis = experiment: Binding affinity to HCV NS3/4a protease assessed as compound-protein adduct formation per mg protein using radiolabelled compound
[1] = Inhibition of HCV genotype 3a NS3/4a protease by enzymatic assay; set-up: species or system Hepatitis C virus subtype 3a
Hepatitis C virus = experiment: Antiviral activity against HCV genotype 3a in RLuc cells assessed as reduction in viral replication by luciferase reporter gene assay; format: functional, organism-based, Hepacivirus hominis, subtype 3a
[2] = Volume of distribution at steady state in rat; format: ADME; details: in vivo, read-out: Vdss
[3] = Half life in rat; format: ADME; details: in vivo
[4] = Clearance in rat; format: ADME; details: in vivo
[5] = Lipophilicity, log D of compound; format: physicochemical; details: octanol/water
[6] = Drug concentration in rat liver after 6 hrs; format: ADME, tissue-based; details: read-out: Drug uptake
[7] = Oral bioavailability in rat; format: ADME, organism-based; details: in vivo
[8] = MRT in rat; format: ADME; details: in vivo
[9] = Drug metabolism in human liver microsomes assessed as hydroxylated metabolite formation; format: ADME, Microsome
[10] = Drug metabolism in human liver microsomes assessed as metabolite formation in presence of glutathione; format: ADME, Microsome

| Structure (SMILES) | PB (Hepacivirus hominis) [pmol/mg] | Ki [1] [nM] | EC50 (Hepatitis C virus; Hepatitis C virus, subtype 3a) [nM] | other results |
| --- | --- | --- | --- | --- |
| C=C[C@@H]1C[C@]1(NC(=O)[C@@H]1C[C@@H]2CN1C(=O)[C@H](C(C)(C)C)NC(=O)O[C@@H]1C[C@H]1CCCCCc1nc3ccc(OC)cc3nc1O2)C(=O)NS(=O)(=O)C1CC1 | 24 | – | – | – |
| C=C[C@@H]1C[C@]1(NC(=O)[C@@H]1C[C@@H](Oc2cc(-c3csc(NC(=O)C(C)C)n3)nc3c(Br)c(OC)ccc23)CN1C(=O)[C@@H](NC(=O)OC1CCCC1)C(C)(C)C)C(=O)O | 15 | – | – | – |
| COc1ccc2nc3c(nc2c1)O[C@@H]1C[C@@H](C(=O)N[C@]2(C(=O)NS(=O)(=O)C4(C)CC4)C[C@H]2C(F)F)N(C1)C(=O)[C@H](C(C)(C)C)NC(=O)O[C@@H]1C[C@H]1CCCCC3 | – | 0.165 | 74 | – |
| CC[C@@H]1[C@@H]2CN(C(=O)[C@H](C(C)(C)C)NC(=O)O[C@@H]3C[C@H]3CC/C=C/C(F)(F)c3nc4ccc(OC)cc4nc3O2)[C@@H]1C(=O)N[C@]1(C(=O)NS(=O)(=O)C2(C)CC2)C[C@H]1C(F)F | – | 0.053 | 5.3 | – |
| C=C[C@@H]1C[C@]1(NC(=O)[C@@H]1[C@H](CC)[C@@H]2CN1C(=O)[C@H](C(C)(C)C)NC(=O)O[C@@H]1C[C@H]1CCCCCc1nc3ccc(OC)cc3nc1O2)C(=O)NS(=O)(=O)C1CC1 | 117 | 0.081 | 20 | Vd [2]: 1.9 L/kg; half-life [3]: 2.2 h; clearance [4]: 14.7 mL/min/kg; logD [5]: 4.1; concentration at 6 h [6]: 20.9 µM |
| COc1ccc2nc3c(nc2c1)O[C@H]1CN(C(=O)[C@H](C(C)(C)C)NC(=O)O[C@@H]2C[C@H]2CCCCC3)[C@H](C(=O)N[C@]2(C(=O)NS(=O)(=O)C3(C)CC3)C[C@H]2C(F)F)[C@@H]1CC(C)C | – | 0.63 | 1120 | – |
| COc1ccc2nc3c(nc2c1)O[C@H]1CN(C(=O)[C@H](C(C)(C)C)NC(=O)O[C@@H]2C[C@H]2CCCCC3)[C@H](C(=O)N[C@]2(C(=O)NS(=O)(=O)C3CC3)C[C@H]2CC(F)F)[C@@H]1C | – | 0.92 | 375 | – |
| CC[C@@H]1C[C@]1(NC(=O)[C@@H]1[C@H](C)[C@@H]2CN1C(=O)[C@H](C(C)(C)C)NC(=O)O[C@@H]1C[C@H]1CCCCCc1nc3ccc(OC)cc3nc1O2)C(=O)NS(=O)(=O)C1CC1 | – | 0.53 | 188 | – |
| C=C[C@@H]1C[C@]1(NC(=O)[C@@H]1C[C@@H](Oc2ncc(OC)c3ccc(Cl)cc23)CN1C(=O)[C@@H](NC(=O)OC(C)(C)C)C(C)(C)C)C(=O)NS(=O)(=O)C1CC1 | 114 | – | – | – |
| CC[C@@H]1[C@@H]2CN(C(=O)[C@H](C(C)(C)C)NC(=O)O[C@@H]3C[C@H]3CCCCCc3nc4ccc(OC)cc4nc3O2)[C@@H]1C(=O)N[C@]1(C(=O)NS(=O)(=O)C2CC2)C[C@H]1CC | – | 0.563 | 272 | Vd [2]: 3.1 L/kg; half-life [3]: 5 h; clearance [4]: 11.2 mL/min/kg; logD [5]: 4.6; bioavailability [7]: 100%; concentration at 6 h [6]: 30.2 µM |
| COc1ccc2nc3c(nc2c1)O[C@H]1CN(C(=O)[C@H](C(C)(C)C)NC(=O)O[C@@H]2C[C@H]2CCCCC3)[C@H](C(=O)N[C@]2(C(=O)NS(=O)(=O)C3(C)CC3)C[C@H]2C(F)F)[C@@H]1Cc1ccccc1 | – | 0.87 | 1110 | – |
| CC[C@@H]1C[C@]1(NC(=O)[C@@H]1C[C@@H]2CN1C(=O)[C@H](C(C)(C)C)NC(=O)OCC(C)(C)CCCCc1cccc3c1CN(C3)C(=O)O2)C(=O)NS(=O)(=O)C1CC1 | 29 | – | – | – |
| CC[C@@H]1[C@@H]2CN(C(=O)[C@H](C(C)(C)C)NC(=O)O[C@@H]3C[C@H]3CCCC3CC3c3nc4ccc(OC)cc4nc3O2)[C@@H]1C(=O)N[C@]1(C(=O)NS(=O)(=O)C2(C)CC2)C[C@H]1C(F)F (stereo in doubt; 46) | – | 9.4 | – | EC50 (Hepatitis C virus): 829 nM |
| CC[C@@H]1[C@@H]2CN(C(=O)[C@H](C(C)(C)C)NC(=O)O[C@@H]3C[C@H]3CCCCCc3nc4ccc(OC)cc4nc3O2)[C@@H]1C(=O)N[C@]1(C(=O)NS(=O)(=O)C2(C)CC2)C[C@H]1C | – | 0.838 | 109 | – |
| CC(C)(C)OC(=O)N[C@H]1CCCCC/C=C\[C@@H]2C[C@@]2(C(=O)NS(=O)(=O)C2CC2)NC(=O)[C@@H]2C[C@@H](OC(=O)N3Cc4cccc(F)c4C3)CN2C1=O | 202 | – | – | – |
| COc1ccc2nc3c(nc2c1)O[C@H]1CN(C(=O)[C@H](C(C)(C)C)NC(=O)O[C@@H]2C[C@H]2CCCCC3)[C@H](C(=O)N[C@]2(C(=O)NS(=O)(=O)C3CC3)C[C@H]2CCF)[C@@H]1C | – | 1.3 | 419 | – |
| CC[C@@H]1[C@@H]2CN(C(=O)[C@H](C(C)(C)C)NC(=O)O[C@@H]3C[C@H]3CCCCC(F)c3nc4ccc(OC)cc4nc3O2)[C@@H]1C(=O)N[C@]1(C(=O)NS(=O)(=O)C2(C)CC2)C[C@H]1C(F)F (stereo partly specified) | – | 0.13 | 35 | – |
| CC[C@@H]1[C@@H]2CN(C(=O)[C@H](C(C)(C)C)NC(=O)O[C@@H]3C[C@H]3CCCCCc3nc4ccc(OC)cc4nc3O2)[C@@H]1C(=O)N[C@]1(C(=O)NS(=O)(=O)C2CC2)C[C@H]1C(F)F | – | 0.043 | 27 | Vd [2]: 1 L/kg; half-life [3]: 0.8 h; clearance [4]: 33.3 mL/min/kg; logD [5]: 3.5; bioavailability [7]: 36%; concentration at 6 h [6]: 1.2 µM |
| CC[C@@H]1[C@@H]2CN(C(=O)[C@H](C(C)(C)C)NC(=O)O[C@@H]3C[C@H]3CCCCCc3nc4ccc(OC)cc4nc3O2)[C@@H]1C(=O)N[C@]1(C(=O)NS(=O)(=O)C2(C)CC2)C[C@H]1C(F)F | 10 | 0.067 | 23 | Vd [2]: 1.7 L/kg; half-life [3]: 1.4 h; clearance [4]: 21.7 mL/min/kg; logD [5]: 3.8; bioavailability [7]: 31%; concentration at 6 h [6]: 14 µM; MRT [8]: 1.4 h; Drug metabolism [9]: Metabolite_Detected |
| CC[C@@H]1[C@@H]2CN(C(=O)[C@H](C(C)(C)C)NC(=O)O[C@@H]3C[C@H]3CCCC3CC3c3nc4ccc(OC)cc4nc3O2)[C@@H]1C(=O)N[C@]1(C(=O)NS(=O)(=O)C2(C)CC2)C[C@H]1C(F)F (stereo in doubt; 45) | – | 1.7 | – | EC50 (Hepatitis C virus): 128 nM |
| COc1ccc2c(O[C@@H]3C[C@H]4C(=O)N[C@]5(C(=O)NS(=O)(=O)C6CC6)C[C@H]5/C=C\CCCCN(C)C(=O)[C@@H]4C3)cc(-c3nc(C(C)C)cs3)nc2c1C | 22 | – | – | – |
| C=C[C@@H]1C[C@]1(NC(=O)[C@@H]1[C@H](C)[C@@H]2CN1C(=O)[C@H](C(C)(C)C)NC(=O)O[C@@H]1C[C@H]1CCCCCc1nc3ccc(OC)cc3nc1O2)C(=O)NS(=O)(=O)C1CC1 | – | 0.094 | 41 | Drug metabolism [10]: Metabolite_Detected |
| CC[C@@H]1C[C@]1(NC(=O)[C@@H]1C[C@@H](Oc2cc(-c3csc(NC(C)C)n3)nc3c(Cl)c(OCCN4CCOCC4)ccc23)CN1C(=O)[C@@H](NC(=O)O[C@@H]1C[C@@H]2C[C@@H]2C1)C(C)(C)C)C(=O)O | 26 | – | – | – |
| CCC[C@@H]1[C@@H]2CN(C(=O)[C@H](C(C)(C)C)NC(=O)O[C@@H]3C[C@H]3CCCCCc3nc4ccc(OC)cc4nc3O2)[C@@H]1C(=O)N[C@]1(C(=O)NS(=O)(=O)C2(C)CC2)C[C@H]1C(F)F | – | 0.12 | 36 | – |
| COc1ccc2c(O[C@H]3CCN4C(=O)N(C)CCCC/C=C\[C@@H]5C[C@@]5(C(=O)NS(=O)(=O)C5(C)CC5)NC(=O)[C@@H]4C3)cc(-c3nc(C(F)(F)F)cs3)nc2c1C | 96 | – | – | – |
| COc1ccc2nc3c(nc2c1)O[C@H]1CN(C(=O)[C@H](C(C)(C)C)NC(=O)O[C@@H]2C[C@H]2CCCCC3)[C@H](C(=O)N[C@]2(C(=O)NS(=O)(=O)C3(C)CC3)C[C@H]2C(F)F)[C@@H]1C1CC1 | – | 4.9 | 1160 | – |
| Cc1cnc(C(=O)N[C@H]2CCCCC/C=C\[C@@H]3C[C@@]3(C(=O)NS(=O)(=O)C3CC3)NC(=O)[C@@H]3C[C@@H](Oc4nc5ccccc5c5ccccc45)CN3C2=O)cn1 | 295 | – | – | – |
| COc1ccc2nc3c(nc2c1)O[C@H]1CN(C(=O)[C@H](C(C)(C)C)NC(=O)O[C@@H]2C[C@H]2CCCCC3)[C@H](C(=O)N[C@]2(C(=O)NS(=O)(=O)C3(C)CC3)C[C@H]2C(F)F)[C@@H]1C | – | 0.1 | 20 | Vd [2]: 2.2 L/kg; half-life [3]: 1.3 h; clearance [4]: 35 mL/min/kg; logD [5]: 3.5; bioavailability [7]: 100%; concentration at 6 h [6]: 3.1 µM |
